28 molecules from patent US8637531B2, “Pyrido(3,2-d)pyridmidines useful for treating viral infections” (Gilead Sciences, Inc., priority 2006, dated 2014) can be followed below.

The subject of one data set is HCV replicon. The data set is described as follows: Anti-HCV replicon assay (EC50, luciferase). The format is cell-based. Conditions: Hepatitis C virus, 72 h; human hepatoma Huh-7 cell line harbouring a HCV replicon, 3 days incubation, luciferase luminescence. On the procedure: (§1) The anti-HCV activity of the pyrido[3,2-d]pyrimidine derivatives of this invention was tested in a human hepatoma Huh-7 cell line harbouring a HCV replicon. The assay comprised the following steps:
(§2) Step 1: Compound Preparation and Serial Dilution
(§3) • 1. for water soluble pyrido[3,2-d]pyrimidine derivatives, a volume of 500 μL of solution in cell media (DMEM, 10% FBS, P/S, L-Glutamine) was prepared with a concentration being twice the concentration of the starting final serial dilution concentration. A volume of 150 μL of the solution was added to the pre-specified wells in column 1 of a 96-well cell culture plate (PerkinElmer, white plate, cat. #6005181, for EC50 assay; black plate, cat. #6005182 for CC50 assay). The rest of the plate, columns 2-12, was filled with 100 μL of cell media. The plate was then placed on a Precision 2000 Workstation to start the serial dilution. Compounds were diluted three times each step from column 1 to column 10. Column 11 was used as a blank control (no compound added). • 2. for pyrido[3,2-d]pyrimidine derivatives requiring DMSO to dissolve, serial dilution is performed in 50% DMSO in a 384-well plate. A solution containing a compound at 100-fold concentration of the starting final serial dilution concentration was prepared in 50% DMSO and added to the pre-specified wells in column 1 of a polypropylene 384-well plate. The plate was then placed on a Precision 2000 Workstation to start the serial dilution. After the serial dilution, a volume of 2 μL of the solution was transferred from the 384-well plate to a 96-well cell culture plate containing 100 μL of cell media on a Biomek FX Workstation. The DMSO concentration in the final assay condition was 0.5% after cells are added to the plate and the total volume in each well is brought to 200 μL. Step 2: to each well of the serial dilution plate prepared above, 100 μL of cell media containing 6000 suspended Huh-7 HCV replicon cells was added with a Multidrop workstation. The plates were incubated for 3 days at 37° C. with 5% CO2. Step 3: Detection: • a) for the EC50 assay, the media in a 96-well cell culture plate was aspirated with a Biotek EL405 plate-washer. A volume of 200 μL of a solution containing a 1:1 mixture of cell-lysis buffer (Promega, Luciferase Cell Culture Lysis 5× Reagent, cat. #E1531) and luciferase substrate solution (Promega, Luciferase Assay, cat. # E4550) was added to each well of the plate with Multidrop. The plate was incubated for 30 minutes at room temperature before the luminescence signal was measured with a TopCount plate-reader. • b) for the CC50 assay, a volume of 100 μL of pre-mixed CellTiter-Glo (Promega, cat. # G7572) solution is added directly to the cell culture in each well of the plate and the luminescence signal is measured with a TopCount plate-reader after 10 minutes of incubation at room temperature.
Results in table 13 are expressed by the following data: • the 50% effective concentration (EC50), i.e. the concentration that protects 50% of the cell monolayer from virus-induced cytopathic effect, and […]
On the technique in general: Replicon systems follow genome replication, usually without infectious particles.

The nature of data set [1]: CC50 assay in Huh-7 HCV replicon cells (CellTiter-Glo). The format is cell-based. Conditions: human, 3 days incubation, CellTiter-Glo luminescence. The method, then: as §1, §2, §3
the 50% cytostatic concentration (CC50), i.e. the concentration that results in 50% inhibition of cell growth.

What is called EC50 is the concentration that produces a half-maximal response. What is called CC50 is the concentration that lowers cell viability or growth by half. Low values mean harm at low concentration, high ones better tolerance by the cells. `CCCOCCOc1nc(N)nc2ccc(-c3ccc(F)cc3)nc12` [Example 3, 2-amino-4-(2-propoxyethoxy)-6-(4-fluorophenyl)pyrido(3,2-d)pyrimidine] gave an EC50 with HCV replicon of 300 to 1000 nM. This molecule also registered a 50% cytotoxic concentration (CC50) at 3 days in data set [1] above 20 µM.
In the case of `CCCCOCCOc1nc(N)nc2ccc(-c3ccc(F)cc3)nc12` [Example 4, 2-amino-4-(2-butoxyethoxy)-6-(4-fluorophenyl)pyrido(3,2-d)pyrimidine], the EC50 in the data set with HCV replicon was above 1000 nM. The same molecule gave a 50% cytotoxic concentration (CC50) at 3 days in data set [1] above 20 µM.
In the case of `CCOC(C)COc1nc(N)nc2ccc(-c3ccc(F)cc3)nc12` (stereo not drawn) [Example 5, 2-amino-4-(2-ethoxy-1-propoxy)-6-(4-fluorophenyl)pyrido(3,2-d)pyri-midine], the 50% effective concentration (EC50) with HCV replicon is below 300 nM. For the same molecule, the CC50 at 3 days in data set [1] is above 20 µM.
Taken in the same sequence, the figures for `CC(C)OCCOc1nc(N)nc2ccc(-c3ccc(F)cc3)nc12` [Example 6, 2-amino-4-(2-isopropoxyethoxy)-6-(4-fluorophenyl)pyrido(3,2-d)pyrimidine] were below 300 nM and above 20 µM.
Molecule `Nc1nc(OCC(F)F)c2nc(-c3ccc(F)cc3)ccc2n1` [Example 7, 2-amino-4-(2,2-difluoroethoxy)-6-(4-fluorophenyl)pyrido(3,2-d)pyrimidine] registered an EC50 with HCV replicon below 300 nM. Further, in data set [1], the CC50 at 3 days is above 20 µM.
For the molecule `CSCCOc1nc(N)nc2ccc(-c3ccc(F)cc3)nc12` [Example 8, 2-amino-4-[2-(methylthio)ethoxy]-6-(4-fluorophenyl)pyrido(3,2-d)pyrimidine], the EC50 with HCV replicon was below 300 nM. The molecule further yielded a CC50 at 3 days in data set [1] above 20 µM.
Taken in the same sequence, the figures for `Nc1nc(OC2CCC2)c2nc(-c3ccc(F)cc3)ccc2n1` [Example 9, 2-amino-4-(cyclobutoxy)-6-(4-fluorophenyl)pyrido(3,2-d)pyrimidine] were below 300 nM and above 20 µM.
Taken in the same sequence, the figures for `Nc1nc(OCC2CCCC2)c2nc(-c3ccc(F)cc3)ccc2n1` [Example 10, 2-amino-4-(cyclopentylmethoxy)-6-(4-fluorophenyl)pyrido(3,2-d)pyrimidine] were 300 to 1000 nM and above 20 µM.
`Nc1nc(OC2CCCC2)c2nc(-c3ccc(F)cc3)ccc2n1` [Example 11, 2-amino-4-(cyclopentoxy)-6-(4-fluorophenyl)pyrido(3,2-d)pyrimidine] displayed an EC50 in the data set on HCV replicon below 300 nM. The molecule also yielded a CC50 at 3 days in data set [1] above 20 µM.
Taken in the same sequence, the figures for `COC(C)(C)CCOc1nc(N)nc2ccc(-c3ccc(F)cc3)nc12` [Example 12, 2-amino-4-(3-methyl-3-methoxybutoxy)-6-(4-fluorophenyl)pyrido(3,2-d) pyrimidine] were below 300 nM and above 20 µM.
Taken in the same sequence, the figures for `C=CC(C)(C)Oc1nc(N)nc2ccc(-c3ccc(F)cc3)nc12` [Example 13, 2-amino-4-(2-methyl-3-buten-2-oxy)-6-(4-fluorophenyl)pyrido(3,2-d)pyrimidine] were above 1000 nM and above 20 µM.
Taken in the same sequence, the figures for `CC#CCCOc1nc(N)nc2ccc(-c3ccc(F)cc3)nc12` [Example 14, 2-amino-4-(3-pentyn-1-oxy)-6-(4-fluorophenyl)pyrido(3,2-d)pyrimidine] were above 1000 nM and above 20 µM.
Consider `Nc1nc(O[C@H]2CCOC2)c2nc(-c3ccc(F)cc3)ccc2n1` [Example 16, 2-amino-4-[3(S)-tetrahydrofuranyloxy]-6-(4-fluorophenyl)-pyrido(3,2-d)pyrimidine], for which, in the data set with HCV replicon, the EC50 was below 300 nM. The molecule further came in with a CC50 at 3 days in data set [1] above 20 µM.
In the data set with HCV replicon, `Nc1nc(O[C@@H]2CCOC2)c2nc(-c3ccc(F)cc3)ccc2n1` [Example 17, 2-amino-4-[3(R)-tetrahydrofuranyloxy]-6-(4-fluorophenyl)-pyrido(3,2-d) pyrimidine] gave an EC50 below 300 nM. Besides, the CC50 at 3 days in data set [1] was above 20 µM.
Taken in the same sequence, the figures for `Nc1nc(OC2CO[C@H]3OCC[C@@H]23)c2nc(-c3ccc(F)cc3)ccc2n1` (stereo partly drawn) [Example 18, 2-amino-4-[hexahydro-furo(2,3-b)furan-3-oxy]-6-(4-fluorophenyl)-pyrido(3,2-d) pyrimidine] were below 300 nM and above 20 µM.
`CS(=O)(=O)CCOc1nc(N)nc2ccc(-c3ccc(F)cc3)nc12` [Example 19, 2-amino-4-[2-(methylsulfonyl)ethoxy]-6-(4-fluorophenyl)-pyrido(3,2-d) pyrimidine] displayed a half-maximal effective concentration (EC50) in the data set on HCV replicon below 300 nM. The CC50 at 3 days in data set [1] was above 20 µM.
In the same order, the values of `CCC(CC)Oc1nc(N)nc2ccc(-c3ccc(F)cc3)nc12` [Example 20, 4-(1-ethyl-propoxy)-6-(4-fluoro-phenyl)-pyrido[3,2-d]pyrimidin-2-ylamine] are below 300 nM and below 10 µM.
`Nc1nc(OCCN2CCOCC2)c2nc(-c3ccc(F)cc3)ccc2n1` [Example 21, 6-(4-fluoro-phenyl)-4-(2-morpholin-4-yl-ethoxy)-pyrido[3,2-d]pyrimidin-2-ylamine] showed an EC50 in the data set on HCV replicon of 300 to 1000 nM. Also, the half-maximal cytotoxic concentration (CC50) at 3 days in data set [1] was above 20 µM.
Consider `Nc1nc(OCC2CC2)c2nc(-c3ccc(F)cc3)ccc2n1` [Example 22, 4-cyclopropylmethoxy-6-(4-fluoro-phenyl)-pyrido[3,2-d]pyrimidin-2-ylamine], for which the EC50 in the data set with HCV replicon is below 300 nM. This molecule came in with a CC50 at 3 days in data set [1] above 20 µM.
In turn, `COCCOc1nc(N)nc2ccc(-c3ccc(F)cc3)nc12` [Example 23, 6-(4-fluoro-phenyl)-4-(2-methoxy-ethoxy)-pyrido[3,2-d]pyrimidin-2-ylamine] gave an EC50 with HCV replicon below 300 nM. Moreover, the 50% cytotoxic concentration (CC50) at 3 days in data set [1] is above 20 µM.
Taken in the same sequence, the figures for `CCOCCOc1nc(N)nc2ccc(-c3ccc(F)cc3)nc12` [Example 24, 4-(2-ethoxy-ethoxy)-6-(4-fluoro-phenyl)-pyrido[3,2-d]pyrimidin-2-ylamine] were below 300 nM and above 20 µM.
Broadly, the melting point is the temperature, or range, at which the solid turns liquid. Molecule `Nc1nc(OC2CCCCC2)c2nc(-c3ccc(F)cc3)ccc2n1` [Example 32, 2-amino-4-cyclohexyloxy-6-(4-fluorophenyl)-pyrido(3,2-d)pyrimidine] gave a melting point of 180 °C. Also, the EC50 with HCV replicon lay in the range of 300 to 1000 nM. The CC50 at 3 days in data set [1] is below 10 µM.
For `Nc1nc(OC2CCOCC2)c2nc(-c3ccc(F)cc3)ccc2n1` [Example 33, 2-amino-4-(tetrahydro-2H-pyran-4-oxy)-6-(4-fluorophenyl)-pyrido(3,2-d)pyrimidine], the EC50 in the data set on HCV replicon is below 300 nM. The same molecule registered a cytotoxic concentration (CC50) at 3 days in data set [1] of 10 to 20 µM.
Take `Nc1nc(OCC2CCCCO2)c2nc(-c3ccc(F)cc3)ccc2n1` (stereo not drawn) [Example 34, 2-amino-4-(tetrahydropyran-2-methoxy)-6-(4-fluorophenyl)-pyrido(3,2-d)pyrimidine]: the melting point came out at 202 °C. In the data set on HCV replicon, this molecule yielded an EC50 of 300 to 1000 nM. This molecule also showed a CC50 at 3 days in data set [1] of 10 to 20 µM.
In the same order, the values of `Nc1nc(OCC2CCCO2)c2nc(-c3ccc(F)cc3)ccc2n1` (stereo not drawn) [Example 35, 2-amino-4-(tetrahydro-2-furanmethoxy)-6-(4-fluorophenyl)-pyrido(3,2-d)pyrimidine] are 193 °C, 300 to 1000 nM and 10 to 20 µM.
Taken in the same sequence, the figures for `Nc1nc(OCC2CCOC2)c2nc(-c3ccc(F)cc3)ccc2n1` (stereo not drawn) [Example 36, 2-amino-4-(tetrahydro-3-furanmethoxy)-6-(4-fluorophenyl)-pyrido(3,2-d)pyrimidine] were 219 °C, below 300 nM and 10 to 20 µM.
In the data set with HCV replicon, `COC[C@H](C)Oc1nc(N)nc2ccc(-c3ccc(F)cc3)nc12` [Example 37, 2-amino-4-[(S)-1-methoxy-2-propoxy]-6-(4-fluorophenyl)-pyrido(3,2-d)pyrimidine] displayed an EC50 below 300 nM. This molecule also yielded a half-maximal cytotoxic concentration (CC50) at 3 days in data set [1] above 20 µM.
Taken in the same sequence, the figures for `COC[C@@H](C)Oc1nc(N)nc2ccc(-c3ccc(F)cc3)nc12` [Example 38, 2-amino-4-[(R)-1-methoxy-2-propoxy]-6-(4-fluorophenyl)-pyrido(3,2-d)pyrimidine] were below 300 nM and 10 to 20 µM.
